# In ChEMBL document CHEMBL3046722, “QSAR study of 1,3dioxo-4-methyl-2,3-dihydro-1h-pyrrolo[3,4-c]quinolines as caspase-3 inhibitors” (Med Chem Res, 2008):
# Assay: Octanol-water partition coefficient, log P of the compound
# Assay type: physicochemical
row,Compound,logP
1,COC(=O)CN1C(=O)c2c(C)nc3ccccc3c2C1=O,1.73
2,COC(=O)CN1C(=O)c2c(C)nc3ccc(Br)cc3c2C1=O,2.53
3,COC(=O)CCN1C(=O)c2c(C)nc3ccccc3c2C1=O,1.92
4,COC(=O)CCN1C(=O)c2c(C)nc3ccc(F)cc3c2C1=O,2.06
5,COC(=O)CCN1C(=O)c2c(C)nc3ccc(Br)cc3c2C1=O,2.71
6,Cc1ccccc1N1C(=O)c2c(C)nc3ccccc3c2C1=O,4.54
7,Cc1ccccc1N1C(=O)c2c(C)nc3ccc(Br)cc3c2C1=O,5.33
8,Cc1nc2ccc(Br)cc2c2c1C(=O)N(c1c(C)nn(C)c1C)C2=O,4.43
9,Cc1nc2ccc(S(N)(=O)=O)cc2c2c1C(=O)N(c1c(C)nn(C)c1C)C2=O,2.16
10,Cc1nc2ccc(S(=O)(=O)NCCO)cc2c2c1C(=O)N(c1c(C)nn(C)c1C)C2=O,1.96
11,Cc1nc2ccc(S(=O)(=O)N3CCCC3COc3ccccc3)cc2c2c1C(=O)N(c1c(C)nn(C)c1C)C2=O (centres undefined),4.67
12,Cc1nc2ccc(S(=O)(=O)N3CCOCC3)cc2c2c1C(=O)N(c1c(C)nn(C)c1C)C2=O,2.31
13,Cc1nc2ccc(C#N)cc2c2c1C(=O)N(c1c(C)nn(C)c1C)C2=O,3.68
14,Cc1nc2ccc(F)cc2c2c1C(=O)NC2=O,2.05
15,Cc1nc2ccc(Br)cc2c2c1C(=O)NC2=O,2.71
16,Cc1nc2ccc(S(=O)(=O)N3CCOCC3)cc2c2c1C(=O)NC2=O,0.584

# Second part, the compound after the results:
row,logP,Compound
1,1.87,COC(=O)CN1C(=O)c2c(C)nc3ccc(F)cc3c2C1=O
2,0.404,COC(=O)CN1C(=O)c2c(C)nc3ccc(S(=O)(=O)N4CCOCC4)cc3c2C1=O
3,0.585,COC(=O)CCN1C(=O)c2c(C)nc3ccc(S(=O)(=O)N4CCOCC4)cc3c2C1=O
4,3.21,Cc1ccccc1N1C(=O)c2c(C)nc3ccc(S(=O)(=O)N4CCOCC4)cc3c2C1=O
5,2.24,COCCNS(=O)(=O)c1ccc2nc(C)c3c(c2c1)C(=O)N(c1c(C)nn(C)c1C)C3=O
6,4.2,COC(=O)C(Cc1ccccc1)NS(=O)(=O)c1ccc2nc(C)c3c(c2c1)C(=O)N(c1c(C)nn(C)c1C)C3=O (centres undefined)
7,2.95,Cc1nc2ccc(Br)cc2c2c1C(=O)N(C)C2=O
8,0.83,Cc1nc2ccc(S(=O)(=O)N3CCOCC3)cc2c2c1C(=O)N(C)C2=O
